Data as given in patent publication US20260184759A1, “CHIMERIC ANTIGEN RECEPTORS SPECIFIC FOR CONJUGATED BIOTIN” (Seattle Children's Hospital (dba Seattle Children's …, priority 2022, published 2026).

Key:
[1] = tested on: anti-conjugated biotin CARs; experiment: Competition assay against biotin-PEG-Cy5 binding (flow cytometry); design: species or system human; conditions: 440 nM biotin-PEG-Cy5 with 0.2, 1, 5 or 20 nM competitor, 30 minutes, room temperature
Procedure: First, cells expressing various CARs were incubated with 440 nM of biotin-PEG-Cy5 (FIG. 6) for 30 minutes at room temperature. Concurrently, they were exposed to 0 nM (no competition), 0.2 nM, 1 nM, 5 nM, or 20 nM of either unconjugated biotin or a non-fluorescent conjugated biotin (FIG. 7A).
One differentiating factor for this CAR when compared with other biotin-binding receptors previously described^28,29,31 is that the CAR may bind any biotin derivative but not the unmodified molecule itself (FIG. 2B). To confirm this selective binding to biotin conjugates, the panel of CAR T cells was incubated with 440 nM of a biotin-PEG-Cy5 conjugate, and titrated doses (20 nM, 5 nM, 1 nM, and 0.2 nM) of competition were incubated concurrently with the soluble antigen. Competition included another conjugated biotin, biotin-PEG2k-folate (FIG. 7A), and unmodified biotin (FIG. 7B).
To confirm anti-biotin CAR T cell binding to conjugated biotin, 440 nM of a 1.1 kDa biotin-PEG-Cy5 (Click Chemistry Tools) conjugate was incubated with the cells for 30 min at room temperature. For the competition assay, 0.2 nM, 1 nM, 5 nM, or 20 nM of either 2 kDa biotin-folate (NanoCS) or unconjugated biotin (Sigma-Adrich) were incubated concurrently with the cells and biotin-PEG-Cy5. Cells were washed and fixed in a 0.5% paraformaldehyde solution. […]

[2] = tested on: anti-conjugated biotin CAR T cells; experiment: ICCS assay with unconjugated biotin added to the co-incubation; assay type: cell-based, human; conditions: 0 ng, 100 ng, 500 ng, 2 ug unconjugated biotin during 4-hour co-incubation with labelled targets
Procedure: Additionally, unconjugated biotin was added to co-incubating cells for the entire 4-hour co-incubation to determine whether unconjugated biotin can block anti-conjugated biotin binding to target cells. Unconjugated biotin was added at 4 different doses: 0 ng (no competition), 100 ng, 500 ng, and 2 ug. […] The cells were then assessed for production of the intracellular cytokines IFN, IL2, and TNF.
Cytokine expression and activation/exhaustion markers of anti-biotin CAR T cells stimulated with targets cells were examined by ICCS. Target cells were labeled with appropriate intermediate adaptors and washed. T cells were then co-incubated with labeled and unlabeled target cells at an E:T ratio of 1:1 for 4 hours in the presence of Protein Transport Inhibitor (ThermoFisher Scientific) to block cytokine secretion. Cells were incubated in the appropriate medium for each target line. 100× Cell Stimulation Cocktail (ThermoFisher Scientific) was used as a positive control. An anti-CD107a BV711 antibody (BioLegend) was also included with the cells during the incubation. Cells were then labeled for dead cells using FVS520 live/dead stain (BD Horizon), washed, and subsequently FcR Blocked (Miltenyi Biotec). Surface markers were then stained using anti-CD4 PacBlue(BioLegend), anti-CD8 PerCP/Cy5.5 (Biolegend), and erbitux-APC (BD Biosciences). […]

In the case of `O=C(O)CCCC[C@@H]1SC[C@@H]2NC(=O)N[C@@H]21` [unconjugated biotin, biotin], the “MFI of biotin-PEG-Cy5 binding under competition” value [1] is reported as “not negatively impacted in their ability to bind biotin conjugated to fluorescent Cy5”, the “MFI of biotin-PEG-Cy5 binding under competition” value ([1]; listed as unmodified biotin) is reported as “no decrease in MFI” and the “impact of unconjugated biotin on activation markers (CD8+ CAR T cells)” value [2] is reported as “no impact on the activation profiles of the CAR T cells”. The “impact of unconjugated biotin on intracellular cytokines (CD4+ CAR T cells)” value [2] was “no impact on the activation profiles of the CAR T cells”.
